Where no end group is shown, it is not given here. [ ]: non-standard residue; d: D form. The star is where a group is joined. hSer(lactone) = O=C1OCC[C@@H]1N*
What was measured:
ovariectomized rats = assay: Effect on bone mass (bone calcium) in ovariectomized rats; format: in vivo, Sprague-Dawley female rats
Method: Bone Dis. 5:177 181 (1984).
Adult Sprague-Dawley female rats were acclimatized, weight grouped (n=9, 10 or 12), and subjected to bilateral ovariectomy (OVX) or sham surgery. Dosing was initiated 17 days after surgery and continued for 20 days. Test compound was administered subcutaneously once a day in 2% rat serum/saline vehicle.
After 20 days of dosing, the rats were sacrificed and the right femurs excised. The femurs were cut in half and the distal half femurs (DHF) were further separated into trabecular bone (TB) and cortical bone (CB) by drilling out the trabeculae. Calcium was extracted and measured by Calcette calcium analyzer and expressed as mean bone Ca in mg/DHF/100 g body weight.
The two sample t-test was used to compare OVX and sham groups. One-way ANOVA was used to compare OVX groups, followed by Fisher's LSD multiple comparison to compare each treatment group to vehicle.

[1] = system: ovariectomized adult female rats; conditions: daily subcutaneous injections; cited from earlier work
[2] = system: normal and osteoporotic adult female rats; conditions: daily subcutaneous doses; cited from earlier work
healthy adult male rats = conditions: daily subcutaneous injections for 12 days; cited from earlier work
[3] = 80 μg/kg/day subcutaneously once a day, 20 days of dosing

Molecule | Total Bone Calcium (% increase over OVX) (ovariectomized rats; [3]) | Total Bone Calcium (% increase over OVX) (ovariectomized rats; 40 ug/kg/day, 10 d of dosing) [%] | Total Bone Calcium (% increase over OVX) (ovariectomized rats; 40 ug/kg/day, 5 d of dosing) [%] | Whole body calcium and ash weight of individual bones [2] | other results
AVSEHQLLHDKGKSIQDLRRRELLEKLLEKLHTA-OH [Compound 2] | 66-114% | – | – | – | Trabecular Bone Calcium (% increase over OVX) (ovariectomized rats; [3]): 87-102%
AVSEHQLLHDKGKSIQDLRRRELLEKLLEKLHTX [Compound 49] | – | 93 | – | – | –
AVSEHQLLHDKGKSIQDLRRRELLEKLLEKLHTX (AVSEHQLLHDKGKSIQDLRRRELLEKLLEKLHT[hSer(lactone)]) [Compound 4, X = hSerlac; homoserine lactone peptide] | 88-114% | 79 | 55 | – | Total Bone Calcium (% increase over OVX) (ovariectomized rats; 40 ug/kg/day, 20 d of dosing): 79-105%
hPTH(1-34): N-terminal (1-34) fragment of human parathyroid hormone (SVSEIQLMHNLGKHLNSMERVEWLRKKLQDVHNF; Parathyroid hormone; UniProt P01270 32-65, looked up, fragment) | – | – | – | increased | Loss of trabecular bone after ovariectomy [1]: completely reversed the loss of trabecular bone; Trabecular and cortical bone calcium and dry weight (healthy adult male rats): increased
AVSEHQLLHDKGKSIQDLRRRELLEKLLEKLP-NH2 (AVSEHQLLHDKGKSIQDLRRRELLEKLLEKLP-NH2) [Compound 42] | – | – | 60 | – | –
bPTH(1-84): bovine parathyroid hormone, single polypeptide chain of 84 amino acid residues (protein, UniProt P01268 32-115, looked up, Parathyroid hormone, bovine parathyroid hormone, single polypeptide chain of 84 amino acid residues) Parathyroid hormone: AVSEIQFMHNLGKHLSSMERVEWLRKKLQDVHNFVALGASIAYRDGSSQRPRKKEDNVLVESHQKSLGEADKADVDVLIKAKPQ | – | – | – | increased | –

— patent publication US5874086A, “Synthesis and use for the treatment of osteoporosis” (Syntex (U.S.A,), Inc., priority 1994, dated 1999)
